{
  "source": "paper PMC9767854",
  "about": "“Discovery and mechanism studies of a novel ATG4B inhibitor Ebselen by drug repurposing and its anti-colorectal cancer effects in mice” (Cell & Bioscience, 2022)",
  "key": {"Caspase 2": {"biological_target": "T1, Caspase 2 (Homo sapiens, UniProt P42575)", "T1 construct": "Beyotime (assay kit only) C1107", "T1 sequence (P42575 170-325 limits assumed, species assumed)": "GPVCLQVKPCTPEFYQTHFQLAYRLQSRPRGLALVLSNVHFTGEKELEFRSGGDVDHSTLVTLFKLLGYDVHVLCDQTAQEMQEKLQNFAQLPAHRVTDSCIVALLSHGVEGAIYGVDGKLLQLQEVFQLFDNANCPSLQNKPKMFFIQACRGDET", "T1 sequence (P42575 348-452 limits assumed, species assumed)": "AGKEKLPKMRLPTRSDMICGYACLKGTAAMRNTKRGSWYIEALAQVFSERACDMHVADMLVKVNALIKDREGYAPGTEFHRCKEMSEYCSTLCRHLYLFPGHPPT", "test": "Caspase activity assay kit, CASP2", "type": "biochemical", "details": "10 μM", "experimental": "The enzyme activity of Caspase 1, Caspase 2, Caspase 3, Caspase 4, Caspase 6, Caspase 8 and Caspase 9 were determined via the activity assay kits (C1101, C1107, C1115, C1121, C1135, C1151 and C1157) from Beyotime (Shanghai, China). Then the experimental procedures were performed according to the manufacturer’s protocols."}, "ATG4B [1]": {"biological_target": "T2, ATG4B (Homo sapiens, UniProt Q9Y4P1)", "T2 construct": "6xHis; made in house; host or cells: E. coli BL21(DE3)", "T2 sequence (Q9Y4P1 1-393)": "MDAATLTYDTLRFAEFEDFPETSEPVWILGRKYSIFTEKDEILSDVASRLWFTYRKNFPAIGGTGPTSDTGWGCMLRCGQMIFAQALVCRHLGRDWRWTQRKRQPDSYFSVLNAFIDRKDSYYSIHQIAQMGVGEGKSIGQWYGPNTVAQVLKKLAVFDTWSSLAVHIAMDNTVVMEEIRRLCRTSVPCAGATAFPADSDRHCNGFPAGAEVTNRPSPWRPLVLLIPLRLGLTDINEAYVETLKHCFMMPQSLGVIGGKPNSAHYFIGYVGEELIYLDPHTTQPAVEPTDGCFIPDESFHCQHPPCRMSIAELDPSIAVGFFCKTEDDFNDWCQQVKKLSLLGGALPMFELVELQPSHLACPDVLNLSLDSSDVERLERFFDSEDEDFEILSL", "test": "Denaturing mass spectrometry of covalent binding", "details": "ATG4B 20 μM, compound 60 μM, 1 h at 37 °C; shift of 275 Da on 57,200 Da form", "experimental": "Analysis of covalent binding between protein and ligand was performed by denaturing mass spectrometry. ATG4B WT and related mutant (20 μM) were incubated with or without compound (60 μM) in phosphate buffer for 1 h at 37℃. Then the samples were desalted using ultrafiltration spin columns (0.5 ml, 10 kDa MWCO, PES, Sartorius) and buffer-exchanged into Milli-Q water. Subsequently, samples were diluted containing 0.1% v/v formic acid before being subjected to denaturing electrospray ionization mass spectrometry analysis (TOF, Waters, SYNAPT G2-Si). Spectrum data were processed with MassLynx (Waters)."}, "HCT116 cells [2]": {"system": "HCT116 cells", "test": "Cell counting and colony formation assays", "type": "cell-based", "experimental": "For colony formation, WT HCT116 and ATG4B KO HCT116 cells were seeded in 6-well plates at 800 cells per well and cultured for 9–12 days, respectively. Concurrently, medium containing indicated compounds were replaced every 3 days, before the cells were fixed in 4% paraformaldehyde for 20 min and washed with PBS three times. Then colonies were stained with crystal violet (Beyotime, C0121) for 1 h and excess dyes were washed with PBS. Eventually, colonies more than 1 mm were counted in at least three independent experiments.\nWT/ATG4B KO HCT116, WT/ATG4B KO SW620 and WT/ATG4B KO RKO cells were seeded in 96-well plate at 1000–1500 cells per well for cell viability assay, and seed in 6-well plate at 1 × 10^5 cells per well for cell number counting. After 12 h, the indicated drugs were added to the medium and cultured for another 96 h. Total viable cell numbers were counted by a cell counter (BioRAD), and cell viability was determined by cell-count-8 assay kit (CCK-8, Bimake, B34304) according to the manufacturer’s protocol."}, "ATG4B C74S mutant": {"biological_target": "T3, ATG4B C74S mutant (Homo sapiens, UniProt Q9Y4P1, C74S)", "T3 construct": "6xHis; made in house; host or cells: E. coli BL21(DE3)", "T3 sequence (Q9Y4P1 whole entry C74S)": "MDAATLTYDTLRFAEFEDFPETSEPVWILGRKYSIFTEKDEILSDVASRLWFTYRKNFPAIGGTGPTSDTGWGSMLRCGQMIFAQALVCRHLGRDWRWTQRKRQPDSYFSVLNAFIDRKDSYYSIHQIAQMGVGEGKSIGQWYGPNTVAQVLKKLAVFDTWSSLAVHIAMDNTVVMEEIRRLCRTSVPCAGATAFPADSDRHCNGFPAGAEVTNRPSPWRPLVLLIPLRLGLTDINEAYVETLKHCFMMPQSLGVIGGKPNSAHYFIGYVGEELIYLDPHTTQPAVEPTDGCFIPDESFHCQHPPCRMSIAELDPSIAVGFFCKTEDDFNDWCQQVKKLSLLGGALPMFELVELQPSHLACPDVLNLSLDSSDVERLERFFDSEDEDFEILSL", "test": "In vitro thermal shift assay, ATG4B C74S mutant", "type": "binding", "details": "C74S mutant 100 nM, Ebselen 1 μM, compared with DMSO", "experimental": "(§1) For in vitro thermal shift assay, recombinant protein ATG4B or C74S mutant (100 nM) was incubated with Ebselen (1 μM) (DMSO as control) in the PCR tubes. The PCR instrument program was set at 25 °C for 10 min, 37 °C to 70 °C for 30 min and followed by cooling tubes for 5 min at room temperature. Then centrifuged at 12,000 rpm for 10 min at 4 °C, soluble fractions were separated from precipitates to be analyzed by SDS-PAGE and immunoblotting."}, "HCT116 cells [3]": {"system": "HCT116 cells", "test": "Long-lived protein degradation assay", "type": "cell-based", "details": "10 μM Ebselen, 2 μM Torin 1, 12 h", "experimental": "Long-lived protein degradation assay was performed referring to the reported protocol. In brief, HCT116 cells were seeded in 6-well plates and cultured overnight, and then incubated with L-methionine-free DMEM (Thermo Fisher Scientific, 21,013,024) supplemented with 10% dialyzed FBS (Biological Industries, 2,148,391) for 30 min at 37℃ for depleting the methionine reserve. Subsequently, the cells were incubated with medium containing 50 μM AHA (MCE, HY-140346A) for 18 h to label AHA on proteins. After 2 h incubation with 10 × L-methionine to chase out the short-lived AHA-labeled proteins, cells were treated with compounds as indicated in regular medium for 12 h. Then the cells were harvested, fixed and permeabilized sequentially until they were incubated in the click reaction master mix (50 μM TAMRA alkyne [AAT Bioquest, AAT-487], 1 mM TCEP [MCE, HY-W011500], 100 μM TBTA [GLPBIO, GC45003], 1 mM CuSO4 [Sangon Biotech, C3008] in PBS) in the dark for 2 h. Finally, cells were washed and suspended in 500 μl PBS and analyzed by flow cytometry (BECKMAN, CytoFLEX S)."}, "ATG4B [4]": {"biological_target": "T2, ATG4B", "test": "Gel-based assay (SDS-PAGE and CBB staining of FRET-GATE-16 cleavage)", "type": "biochemical", "details": "1 μM", "experimental": "Taking ATG4B as the target, we used the high-throughput FRET-based assay to screen the FDA-approved drugs library containing 1600 compounds (Fig. 1A). […] (Additional file 1: Figure S1C). Then twenty-four candidate compounds (marked in red) were noted through an initial screening at 10 μM (Fig. 1B). To further validate their inhibitory effect, a more rigorous and authentic approach as gel-based assay was carried out (Fig. 1C). The brake of the cleavage reaction of the substrate FRET-GATE-16 was very intuitively reflective of the compounds’ inhibitory effect on the ATG4B enzymatic activity. […] This was also verified in the FRET- and gel-based full concentration-response plot of compound 669 (Fig. 1D, E).\nFig. 1 Screening of ATG4B inhibitors based on the approved drugs library by FRET assay. A Illustration of the FRET-based high-throughput screening platform for ATG4B inhibitors. B Scatter plot of inhibition rate of approved library for ATG4B based on FRET assay. Candidate compounds were marked in red. […] C The inhibitory effect of twenty-four candidate compounds (10 μM) were detected by SDS-PAGE and Coomassie brilliant blue (CBB) staining according to the cleavage of substrates. […] D The dose-dependent inhibition of compound 669 (Ebselen) were determined by SDS-PAGE."}, "ATG4B [5]": {"biological_target": "T2, ATG4B", "test": "In vitro thermal shift assay, ATG4B WT", "type": "binding", "details": "ATG4B 100 nM, Ebselen 1 μM, compared with DMSO", "experimental": "as §1"}},
  "data": [
    {"smiles": "O=c1c2ccccc2[se]n1-c1ccccc1", "note": "[Ebselen]", "values": [
      {"measurement": "effect on CASP2 activity", "setting": "Caspase 2", "result": "certain inhibition"},
      {"measurement": "covalent binding to ATG4B", "setting": "ATG4B [1]", "result": "covalently binds to ATG4B"},
      {"measurement": "cell proliferation and colony formation", "setting": "HCT116 cells [2]", "result": "significantly inhibit"},
      {"measurement": "thermal stability of C74S mutant", "setting": "ATG4B C74S mutant", "result": "still a little increased"},
      {"measurement": "autophagic long-lived protein degradation induced by Torin 1", "setting": "HCT116 cells [3]", "result": "significantly inhibited"},
      {"measurement": "inhibition of ATG4B in gel", "setting": "ATG4B [4]", "result": "complete inhibition"},
      {"measurement": "thermal stability of wild type ATG4B", "setting": "ATG4B [5]", "result": "strikingly improved"}
    ]}
  ]
}
